Experimental data published in US9815833B2, “Pyridine derivative and medical use thereof” (Chengdu Easton Biopharmaceuticals Co., Ltd., priority 2013, dated 2017).

Columns and labels:
[1] = Pharmacokinetic studies on healthy rats; type: in vivo; conditions: male, rat, po, SD rats, 10 mg/kg i.g., plasma; for AUC(0-t): read-out: AUC0-24
Description: SD rats were used as test animals, and LC/MS/MS method was applied for measuring the drug concentrations of rats at different time after administrating the compounds of the present invention by gavage, respectively. Pharmacokinetic behaviors of the compounds of the present invention on rats were studied, so as to evaluate the pharmacokinetic characteristics thereof.
(§1) SD rats, weighing 180-220 g, male, 40 rats, 5 rats in each group, provided by Chengdu Dashuo Biological Technology Co., Ltd.; Production facility license: SCXK (Chuan) 2008-24. Animals were housed in the animal room after purchased, adaptively observed for at least three days, and used for assays unless they were qualified for the quarantine standard.
3.1 Grouping: the rats were randomly grouped according to Table 3, with no significant difference among the groups;
Rats in each group was administrated by gavage with the corresponding investigational drugs according to Table 3, at 5 min, 10 min, 20 min, 30 min, 1 h, 2 h, 4 h, 6 h, 8 h, 10 h, 12 h, 24 h after administration, 0.5 ml of blood was taken into the vacuum blood-collection tubes containing heparin sodium, and centrifuged at 5,000 rpm to obtain plasma which was stored at −20° C.
50 μL plasma at each time after administration was taken, then 150 μL of acetonitrile was added, which was subjected to vortex at 1500 rpm for 2 minutes. Solution was centrifuged for 15 minutes (3500 r/min), after that 10 μL supernatant was analyzed by HPLC/MS/MS.
The pharmacokinetic behaviors of the investigational compounds were subjected to compartmental model fitting, and DAS 2.0 software was used to calculate the main pharmacokinetic parameters.

APTT of healthy mice = experiment: Effects on APTT of healthy mice; type: in vivo, KM mice; conditions: 5 mg/kg i.g.; for APTT (sec): KM mice, blood collected 1 hour after administration, x ± SD, 10 mice per group; for anticoagulant effect (APTT) compared with positive drug Apixaban: same dose
Description: Test for four coagulation parameters (including prothrombin time (PT), activated partial thromboplastin time (APTT), thrombin time (TT) and fibrinogen (FIB)) belongs to one of clinical inspection items, and is necessary to thrombotic disease inspections or before the surgery. APTT mainly reflects whether the intrinsic coagulation system status is normal or not. Accordingly, the APTT value is used as a detection indicator in this test of the present invention. The anticoagulant effects of the compounds prepared in the Examples of the present invention were evaluated through the effects thereof on APTT of mice.
as §1, with “KM mice,” for “SD rats,”, “28-30” for “180-220”, “170 mice,” for “40 rats, 5 rats in each group,”
(1) Grouping: mice were grouped and tested according to Table 1, wherein there were 10 mice in each group.
Mice in each group were administrated with the corresponding investigational drugs (mice in control group were administrated with the normal saline). At 1 hour after administration, blood was collected into 0.5 ml vacuum blood-collection tube containing sodium citrate from mice orbit. APTT values of animals were measured after collecting the blood samples.
Excel was used for statistics, experimental data were expressed as (x±SD), and two-sided T-test method was used to statistically compare the experimental data among multiple groups.

human FXa = human FXa (Homo sapiens, UniProt P00742); experiment: Human FXa inhibition assay (fluorogenic substrate); type: biochemical; conditions: human FXa 1 nM, substrate 106.7 μM, 30 minutes at room temperature, pH 8.0
Sequence of human FXa (P00742 235-488 limits assumed): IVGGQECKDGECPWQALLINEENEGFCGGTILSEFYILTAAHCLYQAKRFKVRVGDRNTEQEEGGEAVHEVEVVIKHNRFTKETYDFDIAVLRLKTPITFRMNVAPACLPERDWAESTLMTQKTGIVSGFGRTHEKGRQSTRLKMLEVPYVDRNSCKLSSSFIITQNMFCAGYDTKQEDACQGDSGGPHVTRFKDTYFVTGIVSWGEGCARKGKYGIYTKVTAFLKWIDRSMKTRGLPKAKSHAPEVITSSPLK
Sequence of human FXa (P00742 41-179 partner limits assumed): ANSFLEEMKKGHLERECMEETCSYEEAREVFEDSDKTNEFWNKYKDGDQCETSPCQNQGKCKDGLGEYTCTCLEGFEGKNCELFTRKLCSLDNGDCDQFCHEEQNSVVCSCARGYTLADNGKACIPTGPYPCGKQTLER
Experimental: Inhibitory effects of the compounds of the present invention on human FXa were studied, to measure IC50 values thereof on human FXa.
human FXa enzyme (Sekisui Diagnostics, REF 526);
Fluorogenic substrate for the FXa assay (American diagnostic, Product No. 222F);
Buffer: 20 mM Tris-HCl, 200 mM NaCl, 2.5 mM CaCl2, pH 8.0.
(2) 10 mM of each compound was 5-fold diluted serially with buffer to different concentrations (from 40 μM to 0.00002048 μM);
(3) 6 μL of the above diluted solutions of Step (2) were added into each well of 384-well plate to make a final volume of 60 μL, and the final concentration of the compound ranged from 4 μM to […];
(4) 30 μL of human FXa enzyme (2 nM) was added into each well, with a final concentration of 1 nM;
(5) 24 μL human FXa fluorescent enzyme substrate (266.7 μM) was added into each well, with a final concentration of 106.7 μM;
(6) the plate was gently shaked for 5 minutes and then incubated for 30 minutes at room temperature, with avoidance from light;
(7) fluorescence signal was read at 360/440 nm, the inhibition percentage was measured, and 4 Parameter Logistic Model in Xlfit software was employed to calculate IC50.

Row | Cmax [1] [ng/mL] | Tmax [1] [h] | half-life [1] [h] | AUC(0-t) [1] [ng·h/mL] | IC50 (human FXa) [nM] | Structure (SMILES) | APTT (sec) (APTT of healthy mice) | APTT value compared with the control group (APTT of healthy mice; mice, 1 h after administration, P<0.01) | anticoagulant effect (APTT) compared with positive drug Apixaban (APTT of healthy mice; mice, 1 h after administration)
1 | 6850 | 0.5 | 5.2 | 12900 | – | COc1ccc(-n2nc(C(N)=O)c3c2C(=O)N(c2ccc(N4CCCCC4=O)cc2)CC3)cc1 [Apixaban, reference compound] | 21.46 ± 2.32 * * sec | significantly increase | –
2 | – | – | – | – | – | CSc1ccc(-n2nc(C(N)=O)c3c2C(=O)N(c2ccc(N4CCCCC4=O)cc2)CC3)cc1 [Example 2, 1-(4-methylthiophenyl)-7-oxo-6-[4-(2-oxo-piperidin-1-yl)phenyl]-4,5,6,7-tetrahydro-1H-pyrazolo[3,4-c]pyridine-3-carboxamide] | 24.50 ± 2.50 * * ^Δ sec | – | superior to positive drug Apixaban
3 | – | – | – | – | – | NC(=O)c1nn(-c2ccccc2F)c2c1CCN(c1ccc(N3CCCCC3=O)cc1)C2=O [Example 3, 1-(2-fluorophenyl)-7-oxo-6-[4-(2-oxo-piperidin-1-yl)phenyl]-4,5,6,7-tetrahydro-1H-pyrazolo[3,4-c]pyridine-3-carboxamide] | 27.81 ± 3.42 * * ^ΔΔ sec | – | significantly better than positive drug Apixaban
4 | – | – | – | – | – | COc1ccc(-n2nc(C(N)=O)c3c2C(=O)N(c2ccc(N4CCCCC4=O)cc2)CC3)cc1F [Example 4, 1-(3-fluoro-4-methoxyphenyl)-7-oxo-6-[4-(2-oxo-piperidin-1-yl)phenyl]-4,5,6,7-tetrahydro-1H-pyrazolo[3,4-c]pyridine-3-carboxamide] | 24.78 ± 2.64 * * ^Δ sec | – | superior to positive drug Apixaban
5 | 7560 | 0.3 | 5.8 | 19800 | – | NC(=O)c1nn(-c2ccccc2F)c2c1CCN(c1ccc(N3CCCC3=O)cc1)C2=O [Example 6, 1-(2-fluorophenyl)-7-oxo-6-[4-(2-oxo-pyrrolidin-1-yl)phenyl]-4,5,6,7-tetrahydro-1H-pyrazolo[3,4-c]pyridine-3-carboxamide] | 27.32 ± 3.12 * * ^ΔΔ sec | – | significantly better than positive drug Apixaban
6 | 7860 | 0.3 | 6.2 | 20100 | – | NC(=O)c1nn(-c2cc(F)cc(F)c2)c2c1CCN(c1ccc(N3CCCC3=O)cc1)C2=O [Example 8, 1-(3,5-difluoro-phenyl)-7-oxo-6-[4-(2-oxo-pyrrolidin-1-yl)phenyl]-4,5,6,7-tetrahydro-1H-pyrazolo[3,4-c]pyridine-3-carboxamide] | 27.82 ± 2.71 * * ^ΔΔ sec | – | significantly better than positive drug Apixaban
7 | 9360 | 0.2 | 6.4 | 36400 | 0.078 | COc1ccc(-n2nc(C(N)=O)c3c2C(=O)N(c2ccc(N4CCCC4=O)cc2C)CC3)cc1 [Example 9, 1-(4-methoxyphenyl)-7-oxo-6-[2-methyl-4-(2-oxo-pyrrolidin-1-yl)phenyl]-4,5,6,7-tetrahydro-1H-pyrazolo[3,4-c]pyridine-3-carboxamide] | 31.29 ± 2.80 * * ^ΔΔ sec | – | significantly better than positive drug Apixaban
8 | – | – | – | – | – | COc1ccccc1-n1nc(C(N)=O)c2c1C(=O)N(c1ccc(N3CCCC3=O)cc1C)CC2 [Example 10, 1-(2-methoxyphenyl)-7-oxo-6-[2-methyl-4-(2-oxo-pyrrolidin-1-yl)phenyl]-4,5,6,7-tetrahydro-1H-pyrazolo[3,4-c]pyridine-3-carboxamide] | 24.67 ± 2.37 * * ^Δ sec | – | superior to positive drug Apixaban
9 | – | – | – | – | – | Cc1ccc(-n2nc(C(N)=O)c3c2C(=O)N(c2ccc(N4CCCC4=O)cc2C)CC3)c(C)c1 [Example 13, 1-(2,4-dimethyl-phenyl)-7-oxo-6-[2-methyl-4-(2-oxo-pyrrolidin-1-yl)phenyl]-4,5,6,7-tetrahydro-1H-pyrazolo[3,4-c]pyridine-3-carboxamide] | 24.78 ± 2.67 * * ^Δ sec | – | superior to positive drug Apixaban
10 | 8750 | 0.25 | 6.5 | 32400 | 0.124 | COc1ccc(-n2nc(C(N)=O)c3c2C(=O)N(c2ccc(N4CCCC4=O)cc2C)CC3)cc1F [Example 15, 1-(3-fluoro-4-methoxyphenyl)-7-oxo-6-[2-methyl-4-(2-oxo-pyrrolidin-1-yl)phenyl]-4,5,6,7-tetrahydro-1H-pyrazolo[3,4-c]pyridine-3-carboxamide] | 27.97 ± 2.32 * * ^ΔΔ sec | – | significantly better than positive drug Apixaban
11 | 9450 | 0.25 | 6.2 | 37700 | 0.023 | COc1ccc(-n2nc(C(N)=O)c3c2C(=O)N(c2ccc(N4CCCC4=O)c(C)c2)CC3)cc1 [Example 16, 1-(4-methoxyphenyl)-7-oxo-6-[3-methyl-4-(2-oxo-pyrrolidin-1-yl)phenyl]-4,5,6,7-tetrahydro-1H-pyrazolo[3,4-c]pyridine-3-carboxamide] | 29.89 ± 2.72 * * ^ΔΔ sec | – | significantly better than positive drug Apixaban
12 | – | – | – | – | – | COc1ccc(-n2nc(C(N)=O)c3c2C(=O)N(c2ccc(N4CCCCC4=O)cc2C)CC3)cc1 [Example 19, 1-(4-methoxyphenyl)-7-oxo-6-[2-methyl-4-(2-oxo-piperidin-1-yl)phenyl]-4,5,6,7-tetrahydro-1H-pyrazolo[3,4-c]pyridine-3-carboxamide] | 26.73 ± 3.12 * * ^ΔΔ sec | – | significantly better than positive drug Apixaban
13 | – | – | – | – | – | Cc1cc(N2CCCCC2=O)ccc1N1CCc2c(C(N)=O)nn(-c3cccc(F)c3)c2C1=O [Example 20, 1-(3-fluorophenyl)-7-oxo-6-[2-methyl-4-(2-oxo-piperidin-1-yl)phenyl]-4,5,6,7-tetrahydro-1H-pyrazolo[3,4-c]pyridine-3-carboxamide] | 24.71 ± 3.20 * * ^Δ sec | – | superior to positive drug Apixaban
14 | – | – | – | – | – | COc1ccc(-n2nc(C(N)=O)c3c2C(=O)N(c2ccc(N4CCCCC4=O)cc2OC)CC3)cc1 [Example 21, 1-(4-methoxyphenyl)-7-oxo-6-[2-methoxy-4-(2-oxo-piperidin-1-yl)phenyl]-4,5,6,7-tetrahydro-1H-pyrazolo[3,4-c]pyridine-3-carboxamide] | 24.65 ± 2.18 * * ^Δ sec | – | superior to positive drug Apixaban
